# Test system: human umbilical vein endothelial cells (HUVEC)
# Assay: HUVEC proliferation assay (VEGF-stimulated, MTT);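 note: relative to VEGF-stimulated control minus starvation-medium baseline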
# Assay type: cell-based
# Details: crude reaction mixtures
# Protocol: HUVEC Proliferation Assay
# This assay determines the ability of a test compound to inhibit the growth factor-stimulated proliferation of human umbilical vein endothelial cells (“HUVEC”). HUVEC cells (passage 3-4, Clonetics, Corp.) were thawed into EGM2 culture medium (Clonetics Corp) in T75 flasks. Fresh EGM2 medium was added to the flasks 24 hours later. Four or five days later, cells were exposed to another culture medium (F12K medium supplemented with 10% fetal bovine serum (FBS), 60 μg/mL endothelial cell growth supplement (ECGS), and 0.1 mg/mL heparin). Exponentially-growing HUVEC cells were used in experiments thereafter. Ten to twelve thousand HUVEC cells were plated in 96-well dishes in 100 μl of rich, culture medium (described above). The cells were allowed to attach for 24 hours in this medium. The medium was then removed by aspiration and 105 μl of starvation media (F12K+1% FBS) was added to each well. After 24 hours, 15 μl of test agent dissolved in 1% DMSO in starvation medium or this vehicle alone was added into each treatment well; the final DMSO concentration was 0.1%. One hour later, 30 μl of VEGF (30 ng/mL) in starvation media was added to all wells except those containing untreated controls; the final VEGF concentration was 6 ng/mL. Cellular proliferation was quantified 72 hours later by MTT dye reduction, at which time cells were exposed for 4 hours MTT (Promega Corp.).
# For screening compound library plates, one or two concentrations (one well per concentration) were employed, and the % inhibition was calculated by the following formula:
# % inhibition=(control−test)÷(control−starvation)
# % inhibition=(control-treated)/(control-starvation)×100
# [1] = Library I, Y = CO, nominal concentration of 10 nM
# [2] = Library I, Y = NH, nominal concentration of 10 nM
# [3] = Library I, Y = O, nominal concentration of 10 nM
# [4] = Library II, Y=S, 0.5 mM (column head; text: nominal 0.5 nM)
# [5] = Library II, Y=S, 2 mM (column head; text: nominal 2 nM)
SMILES,% inhibition of the proliferation of HUVEC [1],% inhibition of the proliferation of HUVEC [2],% inhibition of the proliferation of HUVEC [3],% inhibition of the proliferation of HUVEC [4],% inhibition of the proliferation of HUVEC [5]
O=C(Nc1cccnc1)c1ccc2c(-c3nc4ccccc4[nH]3)n[nH]c2c1,−2%,17%,25%,–,–
O=C(Nc1ccccc1)c1ccc2c(-c3nc4ccccc4[nH]3)n[nH]c2c1,3%,16%,24%,–,–
O=C(NCCCO)c1ccc2c(-c3nc4ccccc4[nH]3)n[nH]c2c1,5%,16%,25%,–,–
O=C(NCCN1CCOCC1)c1ccc2c(-c3nc4ccccc4[nH]3)n[nH]c2c1,−1%,15%,30%,–,–
O=C(Nc1ccncc1)c1ccc2c(-c3nc4ccccc4[nH]3)n[nH]c2c1,33%,13%,42%,–,–
NC(=O)C1CCCN(C(=O)c2ccc3c(-c4nc5ccccc5[nH]4)n[nH]c3c2)C1 (stereo not drawn),3%,13%,36%,–,–
CC(=O)NCCNC(=O)c1ccc2c(-c3nc4ccccc4[nH]3)n[nH]c2c1,14%,12%,90%,–,–
COc1ccc(NC(=O)c2ccc3c(-c4nc5ccccc5[nH]4)n[nH]c3c2)cn1,81%,11%,64%,–,–
CC(=O)N1CCN(C(=O)c2ccc3c(-c4nc5ccccc5[nH]4)n[nH]c3c2)CC1,5%,7%,23%,–,–
CC1CN(C(=O)c2ccc3c(-c4nc5ccccc5[nH]4)n[nH]c3c2)CC(C)O1 (stereo not drawn),21%,7%,40%,–,–
O=C(c1ccc2c(-c3nc4ccccc4[nH]3)n[nH]c2c1)N1CCCC(CO)C1 (stereo not drawn),96%,6%,134%,–,–
O=C(c1ccc2c(-c3nc4ccccc4[nH]3)n[nH]c2c1)N1CCN(C(=O)c2ccco2)CC1,−20%,6%,25%,–,–
NC(=O)C1CCN(C(=O)c2ccc3c(-c4nc5ccccc5[nH]4)n[nH]c3c2)CC1,44%,5%,82%,–,–
O=C(Nc1ccc2cn[nH]c2c1)c1ccc2c(-c3nc4ccccc4[nH]3)n[nH]c2c1,0%,2%,4%,–,–
O=C(c1ccc2c(-c3nc4ccccc4[nH]3)n[nH]c2c1)N1CCCC1,8%,0%,23%,–,–
O=C(Nc1ccc2[nH]ncc2c1)c1ccc2c(-c3nc4ccccc4[nH]3)n[nH]c2c1,28%,−1%,80%,–,–
O=C(c1ccc2c(-c3nc4ccccc4[nH]3)n[nH]c2c1)N1CCC(O)C1 (stereo not drawn),10%,−2%,19%,–,–
CC1C(=O)NCCN1C(=O)c1ccc2c(-c3nc4ccccc4[nH]3)n[nH]c2c1 (stereo not drawn),12%,−3%,40%,–,–
O=C(NC1CCCCC1)c1ccc2c(-c3nc4ccccc4[nH]3)n[nH]c2c1,3%,−3%,46%,–,–

SMILES,% inhibition of the proliferation of HUVEC [1],% inhibition of the proliferation of HUVEC [2],% inhibition of the proliferation of HUVEC [3],% inhibition of the proliferation of HUVEC [4],% inhibition of the proliferation of HUVEC [5]
C=CCN1CCN(C(=O)c2ccc3c(-c4nc5ccccc5[nH]4)n[nH]c3c2)CC1,39%,−4%,–,–,–
O=C(c1ccc2c(-c3nc4ccccc4[nH]3)n[nH]c2c1)N1CCCC(O)C1 (stereo not drawn),37%,−5%,20%,–,–
O=C(c1ccc2c(-c3nc4ccccc4[nH]3)n[nH]c2c1)N1CCOCC1,10%,−7%,59%,–,–
CN(CCO)C(=O)c1ccc2c(-c3nc4ccccc4[nH]3)n[nH]c2c1,27%,−8%,48%,–,–
CCOC(=O)C1CCCN(C(=O)c2ccc3c(-c4nc5ccccc5[nH]4)n[nH]c3c2)C1 (stereo not drawn),64%,−8%,83%,–,–
CN(C)C(=O)c1ccc2c(-c3nc4ccccc4[nH]3)n[nH]c2c1,35%,−9%,42%,–,–
CCOC(=O)CC(C)NC(=O)c1ccc2c(-c3nc4ccccc4[nH]3)n[nH]c2c1 (stereo not drawn),31%,−17%,20%,–,–
CN(CC#N)C(=O)c1ccc2c(-c3nc4ccccc4[nH]3)n[nH]c2c1,56%,−17%,17%,–,–
CC1(C)CC(NC(=O)c2ccccc2Sc2ccc3c(/C=C/c4ccccn4)n[nH]c3c2)CC(C)(C)N1,–,–,–,35%,10%
O=C(NCCN1CCNC1=O)c1ccccc1Sc1ccc2c(/C=C/c3ccccn3)n[nH]c2c1,–,–,–,5%,1%
NC(=O)CCNC(=O)c1ccccc1Sc1ccc2c(/C=C/c3ccccn3)n[nH]c2c1,–,–,–,8%,18%
CCC(CC)CCCC(C)NC(=O)c1ccccc1Sc1ccc2c(/C=C/c3ccccn3)n[nH]c2c1 (stereo not drawn),–,–,–,3%,15%
CN(C)CCCCNC(=O)c1ccccc1Sc1ccc2c(/C=C/c3ccccn3)n[nH]c2c1,–,–,–,23%,16%
CN(C)CCCCCCNC(=O)c1ccccc1Sc1ccc2c(/C=C/c3ccccn3)n[nH]c2c1,–,–,–,42%,22%
CC(CNC(=O)c1ccccc1Sc1ccc2c(/C=C/c3ccccn3)n[nH]c2c1)N(C)C (stereo not drawn),–,–,–,−9%,1%
O=C(NCCCN1CCCCCC1)c1ccccc1Sc1ccc2c(/C=C/c3ccccn3)n[nH]c2c1,–,–,–,25%,−5%
O=C(NCCCN1CCCCC1)c1ccccc1Sc1ccc2c(/C=C/c3ccccn3)n[nH]c2c1,–,–,–,16%,7%
O=C(NC1CCS(=O)(=O)C1)c1ccccc1Sc1ccc2c(/C=C/c3ccccn3)n[nH]c2c1 (stereo not drawn),–,–,–,27%,2%
O=C(O)CNC(=O)CCNC(=O)c1ccccc1Sc1ccc2c(/C=C/c3ccccn3)n[nH]c2c1,–,–,–,49%,−9%

# Reference: US6534524B1, “Indazole compounds and pharmaceutical compositions for inhibiting protein kinases, and methods for their use” (Agouron Pharmaceuticals, Inc., priority 1999, dated 2003)
